Tests used:
[1] = system: Pseudomonas aeruginosa PA14; assay: Growth curve analysis (OD600) in LB-Lennox; format: cell-based
Procedure: Strains of interest were grown on LB plates overnight, then inoculated into LB liquid broth until late stationary phase was reached (about 18 hours). Strains were then diluted 1,000-fold into fresh medium and grown to early exponential phase (about 4 hours). The optical density at 600 nm (OD600) was measured, and all cultures were normalized to an OD600 equal to 0.1. […] The plate was incubated in a BioTek Synergy H1 plate reader (BioTek, USA) at 37° C. for 20 h with orbital shaking. OD600 measurements were obtained every 2 minutes. […]

[2] = system: R/F pyocin gene transcription (P07990-lux reporter); assay: Kinetic luciferase assay, P07990-lux reporter for R/F pyocin expression; format: cell-based, Pseudomonas aeruginosa
Procedure: Strains of interest were cultured as described in the growth curve analysis section. Luminescence was measured in black or white clear-bottom 96-well microtiter plates at 3-min intervals at a sensitivity (gain) setting of 135 or 200 together with the OD600 for 20 hours on a BioTek Synergy H1 plate reader (BioTek, USA). Final luciferase activity values were calculated by normalizing luciferase luminescence to culture density.
Strains of interest were grown on LB plates overnight, and single colonies were inoculated into LB liquid broth with appropriate antibiotics and grown overnight with shaking at 37° C. Strains were then diluted 1,000-fold into fresh LB medium and grown to early exponential phase (2-4 hours). […] The plate was incubated in a BioTek Synergy H1 plate reader (BioTek, USA) at 37° C. for 20 h with double-orbital shaking. OD600 and luminescence (gain=135, integration time, 1 sec) measurements were obtained every 10 minutes. At least 3 biological replicates were assayed for each combination of strain and condition. Results were analyzed in MS Excel and plotted using GraphPad Prism.

[3] = system: R/F pyocin expression (P07990-gfp reporter); format: cell-based, Pseudomonas aeruginosa; settings: wild-type PA14; 50 μM peptide, 135 min
Procedure: Strains of interest were grown in 3 mL of LB liquid broth overnight to obtain a saturated culture. They were then diluted 1,000-fold in fresh LB and grown to early exponential phase (about 4 hours). Cultures were concentrated by centrifuging 1 mL of exponential culture into a microcentrifuge tube at 5000 g for 1 min and resuspending in 100 μL. Cells were immobilized by spotting 0.5 μL of the concentrated mixture onto the pad and covering with cover glass. Imaging was performed on a Nikon Eclipse Ti inverted fluorescence microscope equipped with a Photometrics Prime 95B sCMOS digital camera, a Lumencor SOLA SE II 365 LED Light Engine, and an OKO temperature-controlled enclosure. Snapshot images of the slides were taken at 100× magnification in both phase and GFP channels. Automated timelapse imaging was performed at 37° C. For quantification of GFP-positive cells, images were analyzed using the MicrobeJ plugin for ImageJ, segmenting on phase-contrast and taking the mean GFP values of the corresponding fluorescence images. […]
Strains of interest were grown in 3 mL of LB liquid broth with appropriate antibiotics overnight. […] Imaging was immediately performed using a Nikon Eclipse Ti inverted fluorescence microscope with a Photometrics Prime 95B sCMOS digital camera, a Lumencor SOLA SE II 365 LED Light Engine, and an OKO temperature-controlled enclosure. […]

[4] = wild-type cells, 50 μM peptide co-treatment with 0.03 μg/ml ciprofloxacin
[5] = wild-type cells, peptide 25-100 μM
[6] = wild-type cells, peptide concentrations in the 0.1-10 μM range (inhibitor: below 10 μM)
[7] = wild-type cells, 0.1-50 μM peptide with 0.03 μg/ml ciprofloxacin

In the case of WRWYCR, the culture growth ([1]; wild-type cells, 10 μM peptide) was “affected culture growth to a similar degree as 0.03 μg/ml ciprofloxacin”, the culture growth [1, 4] was “initial inhibition of growth” and the culture growth [1, 5] was “markedly impaired P. aeruginosa growth”. For the same compound, the culture growth [1, 6] was “correspondingly smaller effects”, the culture growth ([1]; ΔxerC cells, peptide 25-100 μM) was “inhibited” and the pyocin expression ([2]; wild-type cells, 10 μM peptide co-treatment with 0.03 μg/ml ciprofloxacin) was “earlier and higher peak of pyocin expression relative to ciprofloxacin alone”. For the same compound, the pyocin expression [2, 4] was “later peak of pyocin expression”, the pyocin expression ([2]; wild-type cells, 0.1-10 μM peptide) was “no increase in pyocin expression over untreated cells” and the pyocin expression [2, 5] was “Neither the WRWYCR inhibitor nor the WKHYNY control elicited pyocin expression beyond the level of untreated cells”. The pyocin expression ([2]; ΔxerC cells, peptide 25-100 μM) was “no differences in pyocin expression were observed” and the “GFP fluorescence of pyocin-GFP reporter cells” value [3] was “did not elicit GFP fluorescence”.

WKHYNY was tested, and the culture growth [1, 7] was “impacted neither culture growth nor pyocin expression”, the culture growth [1, 5] was “no inhibition of growth” and the culture growth [1, 6] was “correspondingly smaller effects, as did the control peptide”. The culture growth ([1]; ΔxerC cells, peptide 25-100 μM) was “inhibited by WRWYCR but not WKHYNY”, the pyocin expression [2, 7] was “impacted neither culture growth nor pyocin expression” and the pyocin expression [2, 5] was “Neither the WRWYCR inhibitor nor the WKHYNY control elicited pyocin expression beyond the level of untreated cells”. For the same compound, the pyocin expression ([2]; ΔxerC cells, peptide 25-100 μM) was “no differences in pyocin expression were observed”.

`O=C(O)c1cn(C2CC2)c2cc(N3CCNCC3)c(F)cc2c1=O` [ciprofloxacin] was tested, and the culture growth ([1]; WT PA14 cells, 0.03 μg/ml ciprofloxacin) was “slower growth en route to a slightly lower final OD”, the culture growth ([1]; xerCY272F, 0.03 μg/ml ciprofloxacin) was “initially outgrew both untreated control cultures” and the “OD600 reached in growth curve” value ([1]; Δ69700 cells, 0.03 μg/ml ciprofloxacin) was 0.8. The “culture growth (ciprofloxacin sensitivity)” value ([1]; ΔxerC strain, 0.03 μg/ml ciprofloxacin) was “sensitivity to ciprofloxacin similar to Δ69700”.

With `CO[C@@]12[C@H](COC(N)=O)C3=C(C(=O)C(C)=C(N)C3=O)N1C[C@@H]1N[C@@H]12` [MMC, mitomycin C] the culture growth ([1]; wild-type cells, 0.1 μg/ml MMC) was “inhibited cell growth to a slightly greater degree than 0.03 μg/ml ciprofloxacin”, the culture growth ([1]; xerCY272F, 0.1 μg/ml MMC) was “initially outgrew both untreated control cultures” and the “peak pyocin expression, OD-normalized” value ([2]; wild-type cells, 0.1 μg/ml MMC) was “peaked at approximately tenfold that induced by ciprofloxacin”. The pyocin expression ([2]; xerCY272F ΔrecA, 0.1 μg/ml MMC) was “abolished ciprofloxacin- and MMC-mediated stimulation of pyocin expression”, the pyocin expression ([2]; xerCY272F, 0.1 μg/ml MMC) was “less expression in xerCY272F cultures than in the wild type” and the pyocin expression ([2]; ΔprtN (wild-type background), 0.1 μg/ml MMC) was “deletion of prtN abolished the ability of MMC to stimulate pyocin expression”. For the same compound, the pyocin expression ([2]; ΔrecA, 0.1 μg/ml MMC) was “deletion of recA fully abolished this very strong MMC-stimulated pyocin induction”, the “peak pyocin expression relative to untreated cells” value ([2]; ΔxerC cells, 0.1 μg/ml MMC) was “approximately twofold stronger, peak of expression than in untreated cells” and the pyocin expression ([2]; ΔxerC ΔprtN, 0.1 μg/ml MMC) was “fully abrogated pyocin expression”. The pyocin expression ([2]; ΔxerC ΔrecA, 0.1 μg/ml MMC) was “independent of RecA”.

Source: US20250115942A1, “SCREENING METHOD FOR ANTI-PSEUDOMONAL AGENTS AND COMPOSITIONS AND METHODS FOR TREATING PSEUDOMONAS INFECTIONS” (Board of Regents for Oklahoma Agricultural and Mechanical …, priority 2021, published 2025)
